Results from patent publication US8383655B2, “Modulators of pharmacokinetic properties of therapeutics” (Gilead Sciences, Inc., priority 2006, dated 2013).
pEC50: −log10 of the molar value.

System: HIV-1 strain IIIB
Experiment: Anti-HIV-1 cell culture assay (EC50), XTT cytopathic effect
Assay type: cell-based
Settings: Human immunodeficiency virus 1, 120 h; MT2 cells infected with wild-type HIV-1 IIIB, 5 days; read-out: protease inhibition activity represented by HIV EC50
Description: The assay is based on quantification of the HIV-1-associated cytopathic effect by a colorimetric detection of the viability of virus-infected cells in the presence or absence of tested inhibitors. HIV-1-induced cell death was determined using a metabolic substrate 2,3-bis(2-methoxy-4-nitro-5-sulfophenyl)-2H-tetrazolium-5-carboxanilide (XTT) which is converted only by intact cells into a product with specific absorption characteristics as described by Weislow O S, Kiser R, Fine D L, Bader J, Shoemaker R H and Boyd M R, J. Natl. Cancer Inst.
The infected cells in culture media were distributed into a 96-well plate (20,000 cells in 100 μl/well), and incubated in the presence of a set of solutions containing 5-fold serial dilutions of the tested inhibitor (100 μl/well) for 5 days at 37° C. […]
To determine the antiviral activity of the tested inhibitors, a substrate XTT solution (6 mL per assay plate) at a concentration of 2 mg/mL in a phosphate-buffered saline pH 7.4 was heated in water-bath for 5 min at 55° C. before 50 μl of N-methylphenazonium methasulfate (5 μg/mL) was added per 6 mL of XTT solution. […] Viability, as determined by the amount of XTT metabolites produced, was quantified spectrophotometrically by the absorbance at 450 nm (with subtraction of the background absorbance at 650 nm).

CC(C)c1nc(CN(C)C(=O)N[C@@H](CCN2CCOCC2)C(=O)N[C@H](CC[C@H](Cc2ccccc2)NC(=O)OCc2cncs2)Cc2ccccc2)cs1 [Example S]
pEC50: < 4.70
